Test results taken from US9561249B2, “Pharmaceutical formulations of nitrite and uses thereof” (TheraVasc Inc., priority 2013, dated 2017).
Where two headings read alike, the source gives them in different places.

Assays:
[1] = tested on: subjects with PAD
From the text: An individual subject was withdrawn at the discretion of the responsible investigator and the site study team for the reasons listed below as well as for other safety reasons that may not be listed. In the event one or more subjects were withdrawn, additional subjects were enrolled to ensure an adequate number of subjects complete the cohort. Specific reasons for an individual subject to withdraw included but was not limited to: • Subjects with a pattern of severe adverse events in any SOC, or cardiac monitoring findings as determined by the investigator and/or the sponsor. • Subjects with methemoglobin value 15% on any one occasion during study participation. • Subjects with normal baseline blood pressure who experienced any of the following: an increase in blood pressure to 160 mm Hg systolic and/or 90 mmHg diastolic that persists over 24 hours, an increase from baseline blood pressure of 30 mm Hg systolic and/or 15 mm Hg diastolic that persists over 24 hours, any symptomatic increase in blood pressure. • Subjects with stable elevated blood pressure at baseline who experienced any of the following: an increase in blood pressure to 180 mm Hg systolic and/or 100 mmHg diastolic that persists over 24 hours, an increase from baseline blood pressure of 20 mm Hg systolic and/or 10 mm Hg diastolic that persists over 24 hours, any symptomatic increase in blood pressure. • Subjects who experienced a decrease from baseline blood pressure of 20 mm Hg systolic with or without an increase of 10 beats per minute (BPM) pulse and the presence of symptoms.
The withdrawal criteria allowed a subject to withdraw from the study at any time at his/her own request. The subject may also have been withdrawn at the Investigator's request if it was the Investigator's opinion that it was not in the subject's best interest to continue in the study. The subject was withdrawn if he or she met stopping criteria described above. In the event a subject was withdrawn from the study for any reason, the subject was followed-up with reasonable effort made to determine the reason for their withdrawal from the study and an ET visit as described above. Telephone calls, certified letters and offers of transportation assistance were considered reasonable effort.

[2] = tested on: subjects with PAD; conditions: even at the 160 mg dose escalation
Experimental: The following safety parameters were assessed: medical and medication history, concomitant medication usage, physical examination, vital signs, 12-lead ECG, clinical chemistries, CBC, urinalysis, and adverse events. Urine pregnancy testing was completed for women of child-bearing potential who have not been surgically sterilized. Assessment of acute adverse events (i.e., drop in blood pressure, dizziness) was performed after administration of 1st dose for each dose level of sodium nitrite. Dose-limiting toxicity (DLT) was defined as Grade 3 and clinically significant hematological events, particularly MetHb.

## O=NO [sodium nitrite]
[1]; 40 mg, n = 19
  Subjects who completed the study: 17 (89.5%)
  Subjects who withdrew prior to completion: 2 (10.5%)
  Withdrawal: Adverse Event: 1 (5.3%)
  Withdrawal: Met withdrawal-new hypotension: 0 (0.0%)
  Withdrawal: Subject Request-lack of energy: 1 (5.3%)
  Withdrawal: Subject request- no benefit: 0 (0.0%)
  Withdrawal: Subject request-refused to continue: 0 (0.0%)
[1]; 80 mg, n = 18
  Subjects who completed the study: 15 (83.3%)
  Subjects who withdrew prior to completion: 3 (16.7%)
  Withdrawal: Adverse Event: 2 (11.1%)
  Withdrawal: Met withdrawal-new hypotension: 1 (5.6%)
  Withdrawal: Subject Request-lack of energy: 0 (0.0%)
  Withdrawal: Subject request- no benefit: 0 (0.0%)
  Withdrawal: Subject request-refused to continue: 0 (0.0%)
[2]
  Methemoglobin levels: of no concern
